Reference: patent US12286411B2, “Indane derivatives for use in the treatment of bacterial infection” (priority 2018, dated 2025)

Assays:
[1] = molecular target: T1, LasB elastase (dialysed supernatant from P. aeruginosa PAO1) (Pseudomonas aeruginosa, UniProt P14756); assay: Elastin assay to determine % inhibition (Elastin Congo-Red, dialysed PAO1 supernatant); format: biochemical; settings: read-out: Elastin hydrolysis % inhibition @ 50/25 μM inhibitor concentration
T1 construct: Culture supernatants are recovered by centrifugation and filtrated through a 0.22 μM filter; endogenous in cells; host or cells: P. aeruginosa PAO1 culture supernatant, dialysed
T1 sequence (P14756 198-498): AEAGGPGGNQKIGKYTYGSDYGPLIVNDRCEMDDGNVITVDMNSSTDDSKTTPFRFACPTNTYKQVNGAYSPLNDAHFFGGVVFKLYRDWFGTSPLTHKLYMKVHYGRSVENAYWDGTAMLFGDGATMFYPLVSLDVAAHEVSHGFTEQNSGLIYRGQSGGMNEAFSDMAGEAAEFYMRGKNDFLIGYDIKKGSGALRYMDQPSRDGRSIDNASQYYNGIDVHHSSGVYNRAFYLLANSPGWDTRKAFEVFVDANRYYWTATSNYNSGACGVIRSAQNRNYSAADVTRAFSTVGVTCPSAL
Protocol: Experiments were therefore conducted (1) to measure the potency of inhibition of compounds of the invention against purified Pseudomonas aeruginosa LasB enzyme and also experiments were conducted (2) to measure the ability of compounds of the invention to inhibit LasB-catalysed elastin degradation. The first assay uses a commercial fluorescent synthetic peptide and purified LasB enzyme. The LasB hydrolysis kinetics are measured allowing the determination of the IC50 and Ki of the inhibitors; the second is a more physiological assay using dialysed Pseudomonas aeruginosa supernatant as source of enzyme, plus its natural substrate Elastin. It is an “end point assay” that determines the percentage of LasB inhibition by each compound for one particular time point and inhibitor concentration. Technical details are described below:
The Elastin assay uses as source of enzyme dialysed supernatant from P. aeruginosa PAO1 and the Elastin Congo-Red as substrate. The natural LasB substrate, elastin, is complexed with the congo-red dye (Elastin Congo-Red, ECR). The elastolysis activity from the culture supernatant will degrade elastin and release the congo-red dye into the supernatant. This red dye release can be measured with a spectrophotometer.
Method: To determine LasB elastase activity and assess compound inhibition, an overnight culture of P. aeruginosa strain PA01 is diluted in LB medium. After reaching an ° Dam. of 0.6, this culture is diluted and incubated for additional 18-24 hours in a shaking incubator. Culture supernatants are recovered by centrifugation and filtrated through a […] filter. These supernatants are dialysed (filtration molecules <20 kDa) into a 50 mM Tris-HCl pH 7.4, 2.5 mM CaCl2 solution at 4° C. under agitation for 24 hours. Supernatant dialysed is then mixed volume/volume with the ECR suspension (20 mg/mL of ECR in 100 mM Tris-HCl pH 7.4 buffer supplemented with 1 mM CaCl2) supplemented with Triton X100 (final concentration of 0.01%) in presence of DMSO (positive control) and/or different concentrations of compound (routinely 50 to 1.56 μM). As a negative control, the dialysed supernatant is replaced by Tris-HCl solution (50 mM Tris-HCl pH 7.4, 2.5 mM CaCl2). The mixed reaction is then incubated overnight in a 37° C. shaking incubator. The reaction supernatant is recovered by centrifugation and the release of congo-red is measured by its absorbance at 495 nm (OD495nm).
Percentage inhibition is determined using the following equation: ((OD495nm value of positive control−OD495nm value of negative control)−(OD495nm value of treated supernatant OD495nm value of negative control))/(OD495nm value of positive control−OD495nm value of negative control)×100.

[2] = test system: Pseudomonas aeruginosa (PAO1); assay: Mouse model of Pseudomonas aeruginosa lung infection; format: in vivo; settings: mice infected intranasally with wild-type PAO1, compound i.v. 1 h and 2 h post infection, 10 and 30 mg/kg, 24 hours post infection
Protocol: Mice were dosed by intranasal inoculation of PA (PAO1), then scarified after 24 hours. The extent of infection in the lung was quantified by bacterial load (CFU determination, colony forming units) and the levels of proinflammatory IL-1β. Statistical analysis on both readouts were performed by ANOVA with a Dunnett post-test.
Compounds were administered intravenously in a two-dose regimen (1 hour and 2 hours post infection) at two different doses (10 and 30 mg/kg).

Row | SMILES | inhibition at 25 µM [1] [%] | production and activation of IL-1β in the lung ([2]; FIG. 2) | extent of infection in the lung (CFU levels) ([2]; FIG. 3)
1 | O=C(O)CC1(C(=O)NCc2nc3ccc(OCCCO)cc3s2)Cc2ccccc2C1 [Example 1, 2-[2-[[6-(3-hydroxypropoxy)-1,3-benzothiazol-2-yl]methylcarbamoyl]indan-2-yl]acetic acid] | > 75 | – | –
2 | CCCOc1ccc2nc(CNC(=O)C3(CC(=O)O)Cc4ccccc4C3)sc2c1 [Example 2, 2-[2-[(6-propoxy-1,3-benzothiazol-2-yl)methylcarbamoyl]indan-2-yl]acetic acid] | > 75 | – | –
3 | COc1cc2sc(CNC(=O)C3(CC(=O)O)Cc4ccccc4C3)nc2cc1OCCCN(C)C [Example 3, 2-[2-[[5-[3-(dimethylamino)propoxy]-6-methoxy-1,3-benzothiazol-2-yl]methylcarbamoyl]indan-2-yl]acetic acid] | > 75 | – | –
4 | COc1cc2sc(CNC(=O)C3(CC(=O)[O-])Cc4ccccc4C3)nc2cc1OCCC[N+](C)(C)C [Example 4, 2-[2-[[6-methoxy-5-[3-(trimethylammonio)propoxy]-1,3-benzothiazol-2-yl]methylcarbamoyl]indan-2-yl]acetate] | > 75 | inhibited the production and activation of IL-1β in mice infected by wild-type PA (PA01) at a similar level than the lasB deleted mutant | reduced the extent of infection in the lung to the level of the LasB deleted mutant
5 | COc1cc2sc(CNC(=O)C3(CC(=O)[O-])Cc4ccccc4C3)nc2cc1OCCOCC[N+](C)(C)C [Example 5, 2-[2-[[6-methoxy-5-[2-[2-(trimethylammonio)ethoxy]ethoxy]-1,3-benzothiazol-2-yl]methylcarbamoyl]indan-2-yl]acetate] | 60 to 75 | – | –
6 | COc1cc2sc(CNC(=O)C3(CC(=O)[O-])Cc4cc(F)c(F)cc4C3)nc2cc1OCCOCC[N+](C)(C)C [Example 6, 2-[5,6-difluoro-2-[[6-methoxy-5-[2-[2-(trimethylammonio)ethoxy]ethoxy]-1,3-benzothiazol-2-yl]methylcarbamoyl]indan-2-yl]acetate] | > 75 | – | –
7 | COc1cc2sc(CNC(=O)C3(CC(=O)[O-])Cc4cc(F)c(F)cc4C3)nc2cc1OCC[N+](C)(C)C [Example 7, 2-[5,6-difluoro-2-[[6-methoxy-5-[2-(trimethylammonio)ethoxy]-1,3-benzothiazol-2-yl]methylcarbamoyl]indan-2-yl]acetate] | 60 to 75 | – | –
